The record followed here is ChEMBL document CHEMBL1145624, “The isolation, structure determination and cytotoxicity of the new fungal metabolite, trichodermamide C” (Bioorg Med Chem Lett, 2008).

Molecules are shown by their SMILES. ≈ marks a conversion by molar mass, not a printed value.

The test system of one assay is HCT-116. Briefly: Cytotoxicity against human HCT116 cells after 24 hrs. It counts as functional, cell-based. Particulars: HCT-116, 24 h.
In a further assay the test system is A549. The experiment in a line: Cytotoxicity against human A549 cells after 24 hrs. The class given is functional, cell-based. The following applies: A549, 24 h.

Consider `COc1ccc2cc(N(C)C(=O)C3=NO[C@H]4[C@H](O)C=C[C@@H](O)[C@@]4(O)C3)c(=O)oc2c1OC` [TRICHODERMAMIDE C], for which the IC50 in the assay on HCT-116 turned out to be 0.68 µg/mL (≈ 1.52 µM); with A549, 4.28 µg/mL (≈ 9.59 µM).

As a reminder, the IC50 is the midpoint of a concentration-inhibition curve.
